Laboratory results: patent publication US6667309B2, “Cyclobutene derivatives useful as antagonists of the motilin receptor” (Ortho-McNeil Pharmaceutical, Inc., priority 2000, dated 2003)

Target: T1, motilin receptors located on the colon of mature rabbits (Oryctolagus cuniculus, UniProt G1T803)
T1 construct: The muscle tissues were homogenized in 10 volumes of buffer; from tissue; host or cells: rabbit colon smooth muscle, crude membrane homogenate
Assay: Competition with radiolabeled motilin (porcine) binding, rabbit colon membranes
Parameters: species or system New Zealand rabbits
Conditions: I125 motilin (porcine), rabbit colon membrane
Protocol: The compounds of the invention were tested for their ability to compete with radiolabeled motilin (porcine) for the motilin receptors located on the colon of mature rabbits. The colon from mature New Zealand rabbits was removed, dissected free from the mucosa and serosa layers, and diced into small pieces. The muscle tissues were homogenized in 10 volumes of buffer (50 mM Tris-Cl, 10 mM MgCl2, 0.1 mg/mL bactracin, and 0.25 mM Peflabloc, pH 7.5) in a Polytron (29,000 rpm, 4×15 seconds). The homogenate was centrifuged at 1000×g for 15 min. and the supernatant discarded. The pellet was washed twice before being suspended in homogenizing buffer. This crude homogenate was then passed first through a 19 gauge needle then a 23 gauge needle to further suspend the material and stored at −80° C. […] The pellet was counted in the gamma counter to determine the percentage of […] motilin and thereby the percent inhibition of the test compound.
% inhibition was determined for some compounds by standard techniques: […]

T1 sequence (G1T803 1-400): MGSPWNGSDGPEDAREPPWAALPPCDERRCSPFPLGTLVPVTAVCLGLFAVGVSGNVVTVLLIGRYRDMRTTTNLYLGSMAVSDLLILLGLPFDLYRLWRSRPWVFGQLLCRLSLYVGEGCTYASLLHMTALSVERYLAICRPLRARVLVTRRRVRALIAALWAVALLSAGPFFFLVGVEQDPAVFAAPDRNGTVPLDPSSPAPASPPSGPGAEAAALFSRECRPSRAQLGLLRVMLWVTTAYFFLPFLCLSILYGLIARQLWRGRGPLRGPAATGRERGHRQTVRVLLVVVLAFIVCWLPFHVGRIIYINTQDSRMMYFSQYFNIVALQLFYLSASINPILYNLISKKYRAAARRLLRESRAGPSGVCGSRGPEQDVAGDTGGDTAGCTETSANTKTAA

Q: For `O=C(c1ccc(F)c(F)c1)N(CC1=CC(Cc2ccccc2)(NC(=O)C(Cl)(Cl)Cl)C1)c1cccc(OCCN2CCOCC2)c1` (centres unmarked) [example 6, 3-Benzyl-3-trichloroacetamido-1-[N-(3,4-difluorobenzoyl)]-N-[(3-(2-morpholinoethoxy)phenyl)amino]methylcyclobutene], which “% inhibition” value (@ 1,000 nM test compound) is on record?
A: 14%

Q: With `O=C(c1ccc(Br)cc1)N(CC1=CC(Cc2ccccc2)(NC(=O)C(Cl)(Cl)Cl)C1)c1cccc(OCCN2CCOCC2)c1` (centres unmarked) [example 7, 3-Benzyl-3-trichloroacetamido-1-[N-(4-bromobenzoyl)]-N-[(3-(2-morpholinoethoxy)phenyl)amino]methylcyclobutene] as the compound, how does the “% inhibition” value (@ 10,000 nM test compound) read?
A: 47%
